Source: patent publication US9388419B2 (The Regents of the University of Colorado, a body corporate, priority 2009, dated 2016)
Where two headings read alike, the source gives them in different places.

Experiments:
[1] = system: Yeast strains (S288C background); type: cell-based, Saccharomyces cerevisiae
Description: The minimum inhibitory concentration (MIC) was determined aerobically in a 96 well-plate format. […] Media supplements were added according to levels reported in the Supplements Table, where specified. Overnight cultures of strains were grown in triplicate in 5 mL SD media with vitamins (Methods in Enzymology vol. 350, page 17 (2002)). A 1% (v/v) inoculum was introduced into a 5 ml culture of SD minimal media without vitamins. After the cells reached mid-exponential phase, the culture was diluted to an OD600 of 0.200. The cells were further diluted 1:5 and a 10 μL aliquot was used to inoculate each well of a 96 well plate (˜10^4 cells per well) to total volume of 100 uL. […] Plates were incubated for 72 hours at 30 C.

E. coli = type: cell-based, Escherichia coli; settings: aerobic
Description: (§1) For MIC evaluations, the final results are expressed in chemical agent concentrations determined by analysis of the stock solution by HPLC (i.e., see Subsection Mb).
(§2) The minimum inhibitory concentration (MIC) was determined aerobically in a 96 well-plate format. […] Media supplements were added according to levels reported in the Supplements Table, where specified. Overnight cultures of strains were grown in triplicate in 5 mL LB (with antibiotic where appropriate). A 1% (v/v) inoculum was introduced into a 5 ml culture of M9 minimal media.

E. coli Mach1-T1 = experiment: Minimum inhibitory concentration (MIC) of 3-HP, microaerobic, 96 well-plate, MOPS minimal media; type: cell-based, Escherichia coli; settings: Mach1-T1 with feedback resistant aroH mutant plasmid, MOPS minimal media
Description: Overnight cultures of strains were grown in 5 ml LB (with antibiotic where appropriate). A 1 v/v % was used to inoculate a 15 ml conical tube filled to the top with MOPS minimal media and capped. After the cells reached mid exponential phase, the culture was diluted to an OD600 of 0.200. The cells were further diluted 1:20 and a 10 ul aliquot was used to inoculate each well (˜10^4 cells per well).
The minimum inhibitory concentration (MIC) was determined microaerobically in a 96 well-plate format. Overnight cultures of strains were grown in 5 mL LB (with antibiotic where appropriate). A 1% (v/v) inoculum was introduced into a 15 ml culture of MOPS minimal media. After the cells reached mid-exponential phase, the culture was diluted to an OD600 of 0.200. The cells were further diluted 1:20 and a 10 μL aliquot was used to inoculate each well of a 96 well plate (˜10^4 cells per well).

E. coli K12 = type: cell-based, Escherichia coli; settings: E. coli K12+pSMART-LC-Kan-cynTS vs E. coli K12, M9 minimal media
Description: Overnight cultures of strains were grown in 5 ml LB (with antibiotic where appropriate) at 37° C. in a shaking incubator. A 1 v/v % was used to inoculate 10 mL of M9 minimal media. After the cells reached mid-exponential phase, the culture was diluted to an OD600 of 0.200. The cells were further diluted 1:20 and a 10 ul aliquot was used to inoculate each well (˜10^4 cells per well). […] The MIC endpoint is the lowest concentration of compound at which there was no visible growth.

B. subtilis = experiment: MIC protocol B. subtilis aerobic (Common Methods, M9 media + glutamate, 24 hours); type: cell-based, Bacillus subtilis; settings: strain BSX_0003.0 (pWH1520, control), M9 + glu + trp + 1 mM Xylose
Description: as §1
as §2, with “Table” for “Table,”, “media+glutamate.” for “media.”

O=C(O)CCO [3-HP, 3-hydroxypropionic acid]
% Increase Over Control ([1]; S288C, SC media, no supplement, versus SD control, aerobic): 33%
% Increase Over Control ([1]; strain YX-022 (pyes2.1-Aro3 pRS425-ILV6) versus control, aerobic): 50%
% Increase Over Control ([1]; strain YX-CJR-010 (pyes2.1-Thr1) versus YX-CJR-001, aerobic): 50%
% Increase Over Control ([1]; strain YX-CJR-014 (pyes2.1-arg2) versus YX-CJR-001, aerobic): 50%
% Increase Over Control ([1]; strain YX-CJR-017 (pyes2.1-Aro7) versus YX-CJR-001, aerobic): 75%
% Increase Over Control (E. coli; strain BX_00301.0: BW25113 wild type + pSmart-LC-Kan-folA-C1, M9 + Kan 20 μg/mL): 40%
% Increase Over Control (E. coli; strain BX_00302.0: BW25113 wild type + pSmart-LC-Kan-folA-ORF, M9 + Kan 20 μg/mL): 20%
% Increase Over Control (E. coli; strain BX_00304.0: BW25113 wild type + pSmart-LC-Kan-menA-ORF, M9 + Kan 20 μg/mL): 40%
% Increase Over Control (E. coli; strain BX_00305.0: BW25113 wild type + pSmart-LC-Kan-pheA-C1, M9 + Kan 20 μg/mL): 40%
% Increase Over Control (E. coli; strain BX_00307.0: BW25113 wild type + pSmart-LC-Kan-tyrA-C1, M9 + Kan 20 μg/mL): 40%
% Increase Over Control (E. coli; strain BX_00309.0: BW25113 wild type + pSmart-LC-Kan-cynTS, M9 + Kan 20 μg/mL): 40%
% Increase Over Control (E. coli; strain BX_00310.0: BW25113 wild type + pSmart-LC-Kan-glyA, M9 + Kan 20 μg/mL): 40%
% Increase Over Control (E. coli; strain BX_00312.0: BW25113 wild type + pSmart-LC-Kan-serA, M9 + Kan 20 μg/mL): 40%
% Increase Over Control (E. coli; strain BX_00313.0: BW25113 wild type + pSmart-LC-Kan-folD, M9 + Kan 20 μg/mL): 20%
% Increase Over Control (E. coli; strain BX_00314.0: BW25113 wild type + pSmart-LC-Kan-aroE, M9 + Kan 20 μg/mL): 40%
% Increase Over Control (E. coli; strain BX_00315.0: BW25113 wild type + pSmart-LC-Kan-aroKB C1, M9 + Kan 20 μg/mL): 40%
% Increase Over Control (E. coli; strain BX_00317.0: BW25113 wild type + pSmart-LC-Kan-ilvA operon, M9 + Kan 20 μg/mL): 40%
% Increase Over Control (E. coli; strain BX_00318.0: BW25113 wild type + pSmart-LC-Kan-cysM, M9 + Kan 20 μg/mL): 40%
% Increase Over Control (E. coli; strain BX_00319.0: BW25113 wild type + pK223-aroH, M9 + Amp 100 μg/mL + 1 mM IPTG): 50%
% Increase Over Control (E. coli; strain BX_00321.0: BW25113 wild type + pK223-ct-his-thrA, M9 + Amp 100 μg/mL + 1 mM IPTG): 75%
% Increase Over Control (E. coli; strain BX_00322.0: BW25113 wild type + pJ61-speFED, M9 + Kan 20 μg/mL): 40%
% Increase Over Control (E. coli; strain BX_00323.0: BW25113 wild type + pJ61-aroG, M9 + Kan 20 μg/mL): 40%
% Increase Over Control (E. coli; strain BX_00324.0: BW25113 wild type + pJ61-thrA, M9 + Kan 20 μg/mL): 40%
% Increase Over Control (E. coli; strain BX_00325.0: BW25113 wild type + pJ61-asd, M9 + Kan 20 μg/mL): 40%
% Increase Over Control (E. coli; strain BX_00326.0: BW25113 wild type + pJ61-ilvA, M9 + Kan 20 μg/mL): 40%
% Increase Over Control (E. coli; strain BX_00327.0: BW25113 wild type + pJ61-cysM, M9 + Kan 20 μg/mL): 40%
% Increase Over Control (E. coli; strain BX_00334.0: BW25113 wild type + pSmart-HC-Amp-cadA, M9 + Amp 100 μg/mL): 60%
% Increase Over Control (E. coli; strain BX_00335.0: BW25113 wild type + pSmart-HC-Amp-prs, M9 + Amp 100 μg/mL): 40%
% Increase Over Control (E. coli; strain BX_00336.0: BW25113 wild type + pSmart-HC-Amp-nrdAB, M9 + Amp 100 μg/mL): 40%
% Increase Over Control (E. coli; strain BX_00337.0: BW25113 wild type + pSmart-HC-Amp-nrdEF, M9 + Amp 100 μg/mL): 40%
% Increase Over Control (E. coli; strain BX_00352.0: BW25113 wild type + pSmart-LC-Kan-metC C1, M9 + Amp 100 μg/mL): 40%
% Increase Over Control (E. coli; strain BX_00353.0: BW25113 wild type + pSmart-HC-Amp-metC, M9 + Amp 100 μg/mL): 80%
% Increase Over Control (E. coli; strain BX_00354.0: BW25113 wild type + pSmart-HC-Amp-cynTS, M9 + Amp 100 μg/mL): 80%
% Increase Over Control (E. coli; strain BX_00356.0: BW25113 wild type + pSmart-HC-Amp-LysA, M9 + Amp 100 μg/mL): 20%
% Increase Over Control (E. coli; strain BX_00357.0: BW25113 wild type + pKK223-aroH*445, M9 + Amp 100 μg/mL + 1 mM IPTG): 50%
% Increase Over Control (E. coli; strain BX_00358.0: BW25113 wild type + pKK223-aroH*447, M9 + Amp 100 μg/mL + 1 mM IPTG): 75%
% Increase Over Control (E. coli; strain BX_00359.0: BW25113 wild type + pKK223-aroH*457, M9 + Amp 100 μg/mL + 1 mM IPTG): 75%
% Increase Over Control (E. coli; strain BX_00361.0: BW25113 wild type + pACYC177 (Kan only)-cynTS, M9 + Kan 20 μg/mL): 40%
% Increase Over Control (E. coli; strain BX_00362.0: BW25113 wild type + pACYC177 (Kan only)-aroH, M9 + Kan 20 μg/mL + 1 mM IPTG): 20%
% Increase Over Control (E. coli; strain BX_00363.0: BW25113 wild type + pACYC177 (kan only)-speB, M9 + Kan 20 μg/mL): 40%
% Increase Over Control (E. coli; strain BX_00364.0: BW25113 wild type + pACYC177 (Kan only)-metE (Version1) (SS090608_13), M9 + Kan 20 μg/mL + 1 mM IPTG): 40%
% Increase Over Control (E. coli; strain BX_00365.0: BW25113 wild type + pACYC177 (Kan only)-metC (Version1) (SS090608_17), M9 + Kan 20 μg/mL): 40%
% Increase Over Control (E. coli; strain BX_00368.0: BW25113 wild type + pBT-3-cynTS, M9 + Cm (20 μg/mL)): 20%
% Increase Over Control (E. coli; strain BX_00370.0: BW25113 wild type + pBT-3-speB, M9 + Cm (20 μg/mL)): 20%
improvement in MIC of 3-HP, cells comprising the aroH mutant vs control (E. coli Mach1-T1): 40%
improvement in the MIC of 3-HP with cynTS plasmid (E. coli K12): over sixty percent
Avg 24 hr ΔOD600 (B. subtilis): 0.00
